Data from ChEMBL document CHEMBL5604063, “ASAP - DENV-2 NS2B-NS3 protease fluorescence dose response” (2024).
Several values for one entry are separate records, joined by “and”; a condition that tells them apart may be missing. Equal values may be shown once.

How the values were obtained:
Genome polyprotein [1] = biological target: T1, Genome polyprotein (dengue virus type 2, UniProt P29990); assay type: functional, Thailand/16681/1984
Genome polyprotein [2] = biological target: T1, Genome polyprotein; assay type: functional, Thailand/16681/1984; remark: listed apart in the source

T1 sequence (P29990 1346-1475 limits assumed): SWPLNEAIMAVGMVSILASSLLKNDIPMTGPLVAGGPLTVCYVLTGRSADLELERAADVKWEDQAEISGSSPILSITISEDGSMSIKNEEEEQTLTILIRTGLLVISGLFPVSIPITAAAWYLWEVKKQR
T1 sequence (P29990 1476-2093 limits assumed): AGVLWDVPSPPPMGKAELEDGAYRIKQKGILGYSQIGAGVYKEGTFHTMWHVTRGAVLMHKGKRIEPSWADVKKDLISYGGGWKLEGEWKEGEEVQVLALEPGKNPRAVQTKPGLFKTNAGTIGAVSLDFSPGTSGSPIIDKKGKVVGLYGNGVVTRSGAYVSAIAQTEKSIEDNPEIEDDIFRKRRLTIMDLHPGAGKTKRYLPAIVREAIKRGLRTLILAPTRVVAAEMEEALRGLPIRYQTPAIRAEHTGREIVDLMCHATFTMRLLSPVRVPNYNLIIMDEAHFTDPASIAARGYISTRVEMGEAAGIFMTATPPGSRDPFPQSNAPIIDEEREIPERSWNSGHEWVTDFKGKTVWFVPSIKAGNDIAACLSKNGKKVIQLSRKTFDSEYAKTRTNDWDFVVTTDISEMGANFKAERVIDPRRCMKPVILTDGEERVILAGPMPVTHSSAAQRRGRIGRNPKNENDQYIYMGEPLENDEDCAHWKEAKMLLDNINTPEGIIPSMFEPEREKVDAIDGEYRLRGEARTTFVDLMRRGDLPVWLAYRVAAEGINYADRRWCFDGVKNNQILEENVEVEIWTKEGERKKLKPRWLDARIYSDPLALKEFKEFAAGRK

Row | SMILES | IC50 (Genome polyprotein [1]) | IC50 (Genome polyprotein [2])
1 | Cc1cc(C(=O)Nc2ccc3c(c2)CNC3)c2cnn(C)c2n1 | > 100 µM | > 99.5 µM
2 | O=C(NC[C@H]1CCCO1)[C@H](Nc1ccc2c(c1)CNC2)c1cc(Cl)cc2[nH]ncc12 | > 100 µM | > 99.5 µM
3 | Cc1cccc(CNc2ccc(Cl)cc2C(=O)Nc2ccc3c(c2)CNC3)n1 | > 100 µM | > 99.5 µM
4 | COc1cc(Br)cc2c1NC(=O)[C@]2(Nc1ccc2c(c1)CNC2)C(N)=O | > 100 µM | > 99.5 µM
5 | O=C(Nc1ccc2c(c1)CNC2)c1cccc(-c2cnco2)c1 | 57.7 µM and 70.3 µM | 27.6 µM
6 | N#Cc1cc(Cl)cc(C(=O)Nc2ccc3c(c2)CNC3)c1 | > 100 µM | > 99.5 µM
7 | Cn1cc2cc(Cl)cc(C(=O)Nc3ccc4c(c3)CNC4)c2n1 | 69.9 µM and > 100 µM | > 99.5 µM
8 | COCCOc1ccc(Cl)cc1C(=O)Nc1ccc2c(c1)CNC2 | > 100 µM | > 99.5 µM
9 | O=C(Nc1ccc2c(c1)CNC2)N1C[C@H](C2CC2)C[C@@H]1C1CC1 | > 100 µM | > 99.5 µM
10 | O=C(Nc1ccc2c(c1)CNC2)c1nc2ccccc2s1 | 87.8 µM | > 99.5 µM
11 | O=C(NCc1ccc2c(c1)CCNC2)c1cc(Cl)cc2[nH]ncc12 | > 100 µM | > 99.5 µM
12 | N#CCCNC(=O)[C@H](Nc1ccc2c(c1)CNC2)c1cc(Cl)cc(C2CC2)c1 | > 100 µM | > 99.5 µM
13 | Cc1nc2cc(Cl)ccc2cc1C(=O)Nc1ccc2c(c1)CNC2 | > 100 µM | > 99.5 µM
14 | C[C@H]1C[C@H](c2cccc(CN)c2)[C@@H](c2cc(Cl)cc(NC(=O)OCc3ccccc3)c2)C1 | 77.6 µM | 55.7 µM
15 | O=C(Nc1ccc2c(c1)CNC2)c1cc(Br)cc2[nH]c([C@H]3CCOC3)nc12 | > 100 µM | 98.5 µM
16 | CNC(=O)[C@H](Nc1ccc2c(c1)CNC2)c1cc(Cl)cc(C2CC2)c1 | > 100 µM | > 99.5 µM
17 | Cn1ncc(C(=O)Nc2cc(CCCN)ccn2)c1O | > 100 µM | > 99.5 µM
18 | O=C(Nc1ccc2c(c1)CNC2)C1(c2ccc(Cl)cc2)CCCC1 | > 100 µM | > 99.5 µM
19 | N#C[C@H](Nc1ccc2c(c1)CNC2)c1cc(Cl)cc(C2CC2)c1 | > 100 µM | > 99.5 µM
20 | O=C1Cc2c(cccc2C(=O)Nc2ccc3c(c2)C(=O)OC3)N1 | > 100 µM | > 99.5 µM
21 | C[C@H]1Oc2c(cccc2C(=O)Nc2ccc3c(c2)CNC3)NC1=O | 90.4 µM | 89.3 µM
22 | CCCN1C(=O)[C@](Nc2ccc3c(c2)CNC3)(C(N)=O)c2cc(Cl)ccc21 | > 100 µM | > 99.5 µM

Row | SMILES | IC50 (Genome polyprotein [1]) | IC50 (Genome polyprotein [2])
23 | Cc1c(C(=O)Nc2cc3c(cn2)OCC3)cc(C2CC2)n1C | > 100 µM | > 99.5 µM
24 | O=C(Nc1ccc2c(c1)CNC2)c1cc(Br)cc2[nH]c(C3CCOCC3)nc12 | > 100 µM | > 99.5 µM
25 | CC(C)COc1ccc(Cl)cc1C(=O)Nc1ccc2c(c1)CNC2 | > 100 µM | > 99.5 µM
26 | CC(C)(C)O[C@H]1CCCN(C(=O)Nc2ccc3c(c2)CNC3)C1 | > 100 µM | > 99.5 µM
27 | CC1(C)CN(C(=O)Nc2ccc3c(c2)CNC3)CC(F)(F)C1 | > 100 µM | > 99.5 µM
28 | CNC(=O)[C@]1(Nc2ccc3c(c2)CNC3)C(=O)Nc2ccc(Cl)cc21 | > 100 µM | > 99.5 µM
29 | NS(=O)(=O)c1cc(Cl)cc(C(=O)Nc2ccc3c(c2)CNC3)c1 | > 100 µM | > 99.5 µM
30 | O=C(Nc1ccc2c(c1)CNC2)c1cc2ccccc2[nH]1 | > 100 µM | > 99.5 µM
31 | Cc1ccc2cc(Cl)cc(C(=O)Nc3ccc4c(c3)CNC4)c2n1 | 53.2 µM and > 100 µM | 85.7 µM
32 | Cn1cc(CCc2nc3c(C(=O)Nc4ccc5c(c4)CNC5)cc(Cl)cc3[nH]2)cn1 | 19.4 µM and 21.6 µM | 32.5 µM
33 | N#C[C@H](Nc1ccc2c(c1)CNC2)c1ccnc(C(F)(F)F)c1 | > 100 µM | > 99.5 µM
34 | O=C(Nc1ccc2c(c1)CNC2)c1cc(Cl)ccc1OCC(F)(F)F | > 100 µM | > 99.5 µM
35 | O=C(Nc1ccc2c(c1)CNC2)c1cc(Cl)nc2[nH]ncc12 | > 100 µM | > 99.5 µM
36 | Cc1c(C(=O)Nc2cc(CN(C)C)ccn2)cc(C2CC2)n1C | > 100 µM | > 99.5 µM
37 | C#Cc1ccnc(NC(=O)c2cc(C3CC3)n(C)c2C)c1 | > 100 µM | > 99.5 µM
38 | O=C(Nc1ccc2c(c1)CNC2)N1CCC[C@](O)(c2ccccc2)C1 | > 100 µM | > 99.5 µM
39 | O=C(Nc1ccc2c(c1)CNC2)N1CCC[C@H](CC2CCC2)C1 | > 100 µM | > 99.5 µM
40 | O=C1CCN(c2cc(Cl)cc(C(=O)Nc3ccc4c(c3)CNC4)c2)C(=O)N1 | > 100 µM | > 99.5 µM
41 | NCCCc1ccnc(NC(=O)c2cnn3c2CCC3)c1 | > 100 µM | > 99.5 µM
42 | CCS(=O)(=O)c1ccc(Cl)cc1C(=O)Nc1ccc2c(c1)CNC2 | > 100 µM | > 99.5 µM
43 | CCN(CC)C[C@H]1CCCN(C(=O)Nc2ccc3c(c2)CNC3)C1 | > 100 µM | > 99.5 µM
44 | O=C(Nc1ccc2c(c1)CNC2)c1ccc2scnc2c1 | 41.5 µM and 45.1 µM | 23.2 µM and 10.6 µM

Row | SMILES | IC50 (Genome polyprotein [1]) | IC50 (Genome polyprotein [2])
45 | O=C(Nc1ccc2c[nH]nc2c1)c1cc(Cl)cc2[nH]ncc12 | > 100 µM | > 99.5 µM
46 | Cn1ncc2c(C(=O)Nc3ccc4c(c3)CNC4)cc(C3CC3)nc21 | > 100 µM | > 99.5 µM
47 | COc1ccc(CN2Cc3cc(NC(=O)c4cc(Cl)cc5[nH]ncc45)cc(Br)c3C2)cc1 | > 100 µM | > 99.5 µM
48 | COCCc1ccnc(NC(=O)c2cc(C3CC3)n(C)c2C)c1 | > 100 µM | > 99.5 µM
49 | CCCN1C(=O)[C@](Nc2ccc3c(c2)CNC3)(C(=O)NC)c2ccccc21 | > 100 µM | > 99.5 µM
50 | O=C(Nc1ccc2c(c1)CNC2)c1cc(Cl)cc2ccncc12 | > 100 µM | > 99.5 µM
51 | C[C@H]1CC2(CN1C(=O)Nc1ccc3c(c1)CNC3)CC(F)(F)C2 | > 100 µM | > 99.5 µM
52 | O=C(Nc1ccc2c(c1)CNC2)N1CC[C@H](CC(F)(F)F)C1 | > 100 µM | > 99.5 µM
53 | O=C(Nc1ccc2c(c1)CNC2)N1CC(F)(F)CC2(CCC2)C1 | > 100 µM | > 99.5 µM
54 | NCCCc1ccnc(NC(=O)c2nnc(C3CC3)s2)c1 | > 100 µM | > 99.5 µM
55 | O=C1Cc2c(cc(Br)cc2C(=O)Nc2ccc3c(c2)CNC3)N1 | > 100 µM | > 99.5 µM
56 | N#C[C@H](Nc1ccc2c(c1)CNC2)c1cccc2c1CCNC2=O | > 100 µM | > 99.5 µM
57 | CC1([C@H]2CCCN(C(=O)Nc3ccc4c(c3)CNC4)C2)CC1 | > 100 µM | > 99.5 µM
58 | CCCN1C(=O)[C@](Nc2ccc3c(c2)CNC3)(C(=O)NC)c2cc(Cl)ccc21 | > 100 µM | > 99.5 µM
59 | Cc1c[nH]c2ncnc(C(=O)Nc3ccc4c(c3)CNC4)c12 | > 100 µM | > 99.5 µM
60 | O=C(Nc1ccc2c(c1)CNC2)[C@H]1C[C@@H]1c1ccccc1 | > 100 µM | > 99.5 µM
61 | Nc1noc2cccc(C(=O)Nc3ccc4c(c3)CNC4)c12 | > 100 µM | > 99.5 µM
62 | Clc1cc([C@H](C#Cc2ccccc2)Nc2ccc3c(c2)CNC3)c2cn[nH]c2c1 | 88.8 µM | > 99.5 µM
63 | O=C(Nc1ccc2c(c1)CNC2)c1cc(Br)cc2[nH]c(=O)[nH]c12 | 54.4 µM | 67.1 µM
64 | Cc1cc2c(C(=O)Nc3ccc4c(c3)CNC4)cccc2[nH]1 | > 100 µM | > 99.5 µM
65 | O=C(NCCCn1ccnc1)[C@H](Nc1ccc2c(c1)CNC2)c1cc(Cl)cc(C2CC2)c1 | > 100 µM | > 99.5 µM
66 | O=C1COc2c(cccc2C(=O)Nc2ccc3c(c2)CNC3)N1 | > 100 µM | > 99.5 µM

Row | SMILES | IC50 (Genome polyprotein [1]) | IC50 (Genome polyprotein [2])
67 | O=C(Nc1ccc2c(c1)CNC2)c1ccc2nc(O)sc2c1 | > 100 µM | > 99.5 µM
68 | N#Cc1ccc(C(=O)Nc2ccc3c(c2)CNC3)cc1Cl | > 100 µM | > 99.5 µM
69 | O=C1COc2cc(C(=O)Nc3ccc4c(c3)CNC4)ccc2N1 | > 100 µM | > 99.5 µM
70 | CCOC(=O)c1ncoc1CNC(=O)[C@H](Nc1ccc2c(c1)CNC2)c1cc(Cl)cc(C2CC2)c1 | > 100 µM | > 99.5 µM
71 | O=C(Nc1ccc2c(c1)CNC2)c1cccc2sccc12 | > 100 µM | > 99.5 µM
72 | O=C(Nc1ccc2c(c1)CNC2)c1cncc2[nH]ncc12 | > 100 µM | > 99.5 µM
73 | O=C(Nc1ccc2c(c1)CNC2)c1cc(F)c2[nH]ccc2c1 | > 100 µM | > 99.5 µM
74 | O=C(Nc1ccc2c(c1)CNC2)c1ccnc2[nH]ccc12 | > 100 µM | > 99.5 µM
75 | O=C(Nc1ccc2c(c1)CNC2)c1ncnc2[nH]ccc12 | > 100 µM | > 99.5 µM
76 | NCc1cc(Cl)cc(C(=O)Nc2ccc3c(c2)C(=O)OC3)c1 | > 100 µM | > 99.5 µM
77 | O=C(Nc1ccc2c(c1)CNC2)c1cc(Cl)cc2[nH]c(-c3ncnn3C3CC3)nc12 | > 100 µM | > 99.5 µM
78 | O=C(Nc1ccc2c(c1)CNC2)c1c(Cl)ccc2c1OCO2 | > 100 µM | > 99.5 µM
79 | CC(=O)Nc1cccc(C(=O)Nc2ccc3c(c2)CNC3)n1 | > 100 µM | > 99.5 µM
80 | CC(C)(C)NC(=O)[C@H](Nc1ccc2c(c1)CNC2)c1cc(Cl)cc(C2CC2)c1 | > 100 µM | > 99.5 µM
81 | CCc1cnccc1-c1nc2c(C(=O)Nc3ccc4c(c3)CNC4)cc(Cl)cc2[nH]1 | > 100 µM | > 99.5 µM
82 | CC1(C)C(=O)Nc2ccc(C(=O)Nc3ccc4c(c3)CNC4)cc21 | > 100 µM | > 99.5 µM
83 | O=C(Nc1ccc2c(c1)CNC2)c1ccc2ncsc2c1 | > 100 µM | > 99.5 µM
84 | O=C1Cc2c(cccc2C(=O)Nc2ccc3c(c2)CNCCC3)N1 | 90.1 µM | > 99.5 µM
85 | CNC(=O)[C@H](Nc1ccc2c(c1)C(=O)OC2)c1cc(Cl)cc2[nH]ncc12 | > 100 µM | > 99.5 µM
86 | O=C(Nc1ccc2c(c1)CNC2)c1cccc2[nH]cnc12 | > 100 µM | > 99.5 µM
87 | C[C@H](C1CC1)n1ncc2c(C(=O)Nc3ccc4c(c3)CNC4)cc(C3CC3)nc21 | > 100 µM | > 99.5 µM
88 | Cn1cc2c(C(=O)Nc3ccc4c(c3)CNC4)cccc2n1 | > 100 µM | > 99.5 µM
